From patent US5789448A, “Benzoylethylene derivative” (Mitsubishi Chemical Corporation, priority 1994, dated 1998)
Like-named read-outs stand apart in the source and are kept apart here.

Experiments:
[1] = molecular target: T1, human EGF (epithelial cell growth factor) receptor tyrosine kinase (Homo sapiens, UniProt P00533); assay: Tyrosine kinase inhibiting activity (EGF receptor partially purified from A431 cell membrane fraction, RR-SRC peptide substrate, gamma-32P-ATP); assay type: biochemical; details: 10 μM ATP, 1% DMSO, in ice for 30 minutes
T1 construct: to obtain an A431 cell membrane fraction, and this fraction was provided for measurement as a partially purified EGF receptor; endogenous in cells; host or cells: A431 (human squamous cell carcinoma), membrane fraction
T1 sequence (P00533 25-1210): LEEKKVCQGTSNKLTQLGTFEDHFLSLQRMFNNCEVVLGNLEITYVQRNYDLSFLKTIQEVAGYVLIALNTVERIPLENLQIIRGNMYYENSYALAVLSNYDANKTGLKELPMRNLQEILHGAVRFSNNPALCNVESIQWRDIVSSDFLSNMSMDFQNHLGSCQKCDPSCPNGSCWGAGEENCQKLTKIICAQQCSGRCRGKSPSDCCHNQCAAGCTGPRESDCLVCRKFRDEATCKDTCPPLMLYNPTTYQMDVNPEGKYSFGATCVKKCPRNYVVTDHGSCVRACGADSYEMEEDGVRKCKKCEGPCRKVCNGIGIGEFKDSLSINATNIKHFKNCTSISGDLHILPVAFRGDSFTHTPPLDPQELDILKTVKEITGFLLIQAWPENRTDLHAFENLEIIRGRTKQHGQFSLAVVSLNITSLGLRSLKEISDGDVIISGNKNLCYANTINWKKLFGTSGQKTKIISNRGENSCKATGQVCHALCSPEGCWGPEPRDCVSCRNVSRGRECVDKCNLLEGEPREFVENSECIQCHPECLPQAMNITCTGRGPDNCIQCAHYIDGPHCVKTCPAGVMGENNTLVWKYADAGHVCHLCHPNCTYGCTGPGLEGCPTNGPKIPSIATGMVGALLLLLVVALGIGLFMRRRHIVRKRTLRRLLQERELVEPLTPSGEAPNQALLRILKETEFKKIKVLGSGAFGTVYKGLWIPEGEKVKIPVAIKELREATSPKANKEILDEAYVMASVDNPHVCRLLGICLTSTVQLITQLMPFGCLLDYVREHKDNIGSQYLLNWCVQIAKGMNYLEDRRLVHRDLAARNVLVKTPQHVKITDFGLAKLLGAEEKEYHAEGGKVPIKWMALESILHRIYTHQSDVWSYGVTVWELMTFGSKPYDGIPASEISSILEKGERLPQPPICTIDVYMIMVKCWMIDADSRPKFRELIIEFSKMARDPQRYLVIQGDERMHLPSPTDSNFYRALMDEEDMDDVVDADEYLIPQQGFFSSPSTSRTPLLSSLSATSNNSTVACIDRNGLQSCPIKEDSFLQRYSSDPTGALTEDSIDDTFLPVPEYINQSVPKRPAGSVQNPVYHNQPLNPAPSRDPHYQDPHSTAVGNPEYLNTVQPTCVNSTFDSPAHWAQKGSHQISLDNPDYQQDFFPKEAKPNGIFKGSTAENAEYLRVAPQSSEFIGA
Procedure: (§1) In order to evaluate the tyrosine kinase inhibiting activity and the cancer cell growth inhibiting activity of the compound of the present invention, tests were carried out in a partially purified human EGF ([…]) receptor tyrosine kinase activity measuring system and a cell culture system using human cancerous cells.
(Tyrosine kinase inhibiting activity)
The tyrosine kinase inhibiting activity was measured by using an EGF receptor which was partially purified from an A431 cell line derived from human squamous cell carcinoma and by improving the tyrosine kinase activity measurement method described in Linda J. Pike et al., Proceedings of the National Academy of Sciences of the U.S.A. 79, 1443 (1982).
The detailed method is as described below.
A431 cells were cultured in a Dulbecco modified Eagle's medium (DMEM) containing 10% fetal calf serum (FCS), at 37° C. under 5% carbonic acid gas. The cells were homogenized in a solution containing 10 mM N-2-hydroxyethylpiperazino-N'-2-ethanesulfonic acid (Hepes) buffer (pH 7.4), 0.25M saccharose and 0.1 mM EDTA and then centrifuged at 3000 g for 5 minutes. Further, a supernatant thereof was centrifuged at 10000× g for 30 minutes to obtain an A431 cell membrane fraction, and this fraction was provided for measurement as a partially purified EGF receptor which was an enzyme source.
To a reaction mixture of the above-mentioned A431 cell membrane fraction (10 to 15 μg), a 30 mM Hepes buffer (pH 7.7), 2 mM MnCl2, 50 μM Na3 VO4 and a sample dissolved in dimethylsulfoxide (DMSO) (final concentration: 1% DMSO) was added 100 ng of EGF, and then 75 μg of a synthetic substrate RR-SRC peptide (a peptide described in Sequence No. 1) and 10 μM gamma-^32 P-adenosine triphosphoric acid (37 to 42 KBq) were added thereto to start a reaction.
The volume at that time was 60 μl.
The reaction was carried out in ice for 30 minutes, and the reaction was terminated by adding 6 μl of 10 mg/ml bovine serum albumin and 25 μl of 20% trichloroacetic acid. The reaction mixture was left to stand in ice for 30 minutes.
Next, after the mixture was centrifuged at 5000× g for 2 minutes, 40 μl of the supernatant was sampled and adsorbed to P81 phosphocellulose paper.
This was dipped in a 30% acetic acid solution for 15 minutes to fix, washed by dipping in a 15% acetic acid solution for 15 minutes (washing was repeated four times) and measured the count of ^32 P attached to P81 phosphocellulose paper by a liquid scintillation counter, and this value was defined as A.
At the same time, the counts of a reaction in which the sample tested was not added and a reaction in which both the sample and EGF were not added were measured and were defined as B and C, respectively.
The tyrosine kinase inhibiting rate is determined by the following formula.
Inhibiting rate (%)=100-{(B-A)/(B-C)}×100
From the inhibiting rate obtained by changing the addition concentration of the sample, an IC50 value (50% inhibiting concentration) was calculated.

[2] = test system: KB cells of human rhinopharyngeal cancer; assay: Cancer cell growth inhibiting activity (KB cells, MTT); assay type: cell-based; details: read-out: Cancer cell growth inhibiting activity (IC50)
Procedure: as §1
(Cancer cell growth inhibiting activity)
KB cells of human rhinopharyngeal cancer retain EGF receptor on cellular surfaces thereof excessively.
By using these KB cells, investigation of the effect of a sample on growth of cultured cancer cells was carried out by the following method.
2.5×10^3 cells/well of KB cells were sowed on a 96 well dish and cultured in a DMEM:F12 (1:1) medium containing 10% FCS, 50 U/ml penicillin and 50 μg/ml of streptomycin, under conditions of 37° C. and 5% carbonic acid gas for 1 day. Thereafter, a sample dissolved in DMSO was added to the medium (DMSO final concentration: <0.1%) and cultured under the above conditions for 3 days. The sample and the medium were replaced every 24 hours.
The count of the number of living cells was determined by calorimetric quantitation at two wavelengths of 540 nm and 660 nm using a MTT reagent by referring to the measurement method described in Michael C.
At the same time, the count of the number of living cells when the sample was not added was also measured, and the value was defined as b.
The cell growth inhibiting rate was determined by the following formula.
Inhibiting rate (%)=(b-a)/b×100

[3] = KB cells, 3 days, sample and medium replaced every 24 hours, MTT

IC50 [2, 3]	Compound	IC50 [1]	IC50 ([2]; KB)
–	COc1ccc(C(=O)C=CC#N)cc1OC [compound 5]	340 nM	620 nM
–	COC(=O)C=CC(=O)c1ccc(OC)c(OC)c1 [compound 26]	860 nM	1900 nM
–	COC(=O)C=CC(=O)c1ccc(OC)cc1 [compound 29]	9400 nM	3900 nM
–	COc1ccc(C(=O)C=CCN2CCCCC2)cc1OC [compound 97]	8200 nM	2600 nM
–	CC(C(=O)Nc1ccccc1)=C(C)C(=O)c1ccccc1 [compound 253]	38000 nM	420 nM
–	CCN(CC)C(C)(C)C(=CC(=O)c1ccc(OC)c(OC)c1)S(=O)(=O)c1ccccc1 [compound 278]	1700 nM	950 nM
–	COc1cc(C(=O)C=C(C(C)(C)N2CCCCC2)S(=O)(=O)c2ccccc2)cc2c1OCO2 [compound 290]	5000 nM	830 nM
–	CCN(CC)C(C)(C)C(=CC(=O)c1ccc(OC)c(OC)c1)S(=O)(=O)c1ccc(C)cc1 [compound 293]	1100 nM	230 nM
5000 nM	COc1ccc(C(=O)C=C(C(C)(C)N2CCC(C)CC2)S(=O)(=O)c2ccccc2)cc1OC [compound 327]	27300 nM	–
–	COc1ccc(C(=O)C=C(CN(C(C)C)C(C)C)S(=O)(=O)c2ccccc2)cc1OC [compound 335]	27900 nM	3100 nM
2000 nM	CCN(CC)C(C)(C)C(C#N)=CC(=O)c1ccc(OC)c(OC)c1 [compound 349]	5800 nM	–
–	CCN(CC)C(C)(C)C(=CC(=O)c1ccc(OC)c(OC)c1)S(=O)(=O)c1ccc([N+](=O)[O-])cc1 [compound 350]	1400 nM	570 nM
–	CCN(CC)C(C)(C)C(=CC(=O)c1ccc(OC)c(OC)c1)S(=O)(=O)c1cccs1 [compound 352]	470 nM	630 nM
